# Read-outs that look alike come from different tables or passages of the source. Non-standard residues stand in square brackets, D forms with d. Residues, ends and D or L forms follow the SMILES beside them. d1Nal = N[C@H](Cc1cccc2ccccc12)C(=O)O
# Assays:
# [1] = system: P. granulosum; type: cell-based, Propionibacterium granulosum
# Experimental: This example addresses studies relating to the antimicrobial activities of XMP.629. An in vitro assessment of antibiotic activity in XMP.629 and various known antibiotics against a representative panel of bacterial strains associated with acne was conducted. A broth dilution methodology was employed using guidelines established by National Committee for Clinical Laboratory Standards (NCCLS) for anaerobic organisms to establish an antibacterial profile for XMP.629. Assays to determine the minimal bactericidal concentrations (MBC) and minimal inhibitory concentration (MIC) were conducted for XMP.629 and other known antibiotics. Furthermore, test to determine post antibiotic effect (PAE) of XMP.629 were done.
# Inoculum from a representative panel of bacterial strains associated with acne, such as P. acnes, P. avidum, P. granulosum, and Staphylococcus epidermis was prepared by suspending approximately 5-10 isolated bacterial colonies in pre-reduced MicroScan® Inoculum Water (Dade Behring, Deerfield, Ill.), and growing the bacterial suspension to log phase (approximately 48 hrs). An inoculum of between 1-5×10^6/mL was achieved by adding 100 μL of the suspension to 25 mL Brain Heart Infusion Broth (BHI) (Anaerobe Systems, Morgan Hill, Calif.).
# A stock solution of XMP.629 dissolved in water at a concentration of 4.0 mg/mL was prepared. Dilute solutions of XMP.629 at concentrations ranging from about 1.25 to about 160 μg/mL were made in either water or formulation buffer (130 mM sodium chloride, 0.2% P103 (poloxamer 333), and 0.10% EDTA, pH 7.3). Aqueous stock solutions of clindamycin and erythromycin were prepared in water.
# Each tube, containing a final volume of 1 mL, was mixed by vortexing. Control tubes containing only water or formulation buffer were prepared for each isolate. Initial growth controls were determined by removing 10 μL from the water control tube and diluting it by 100 fold. From this dilution, 10 μL was used for inoculation and for spreading over the surface onto Laked Blood Agar (LBA) (Anaerobe Systems, Morgan Hill, Calif.) plates. The tubes and plates were incubated in an anaerobic atmosphere at 37° C. for 48 h. After incubation, the tubes were mixed and 10 μL samples were removed from each tube for additional plating. These plates were then further incubated in an anaerobic atmosphere at 37° C. for 48-72 h and the resulting colonies were counted. After adjusting for the dilution factor, the lowest concentration of drug or combination of drugs reducing the inoculum by ≧99.9% was considered to be the minimum bactericidal concentration (MBC). MBC50 and 90 values represent where 50 and 90%, respectively, of the tested strain's MBC values are equal to or less than the indicated concentration. The lowest concentration of antibiotic(s) that inhibited visible growth in the culture tubes was considered to be the minimal inhibitory concentration (MIC).
# For comparison, additional Propionibacterium strains, were tested.
# [2] = system: Candida; type: cell-based
# Experimental: (§1) Control tubes containing only water or formulation buffer were prepared for each isolate. Initial growth controls were determined by removing 10 μL from the water control tube and diluting it by 100 fold. From this dilution, 10 μL was used for inoculation and for spreading over the surface onto Laked Blood Agar (LBA) (Anaerobe Systems, Morgan Hill, Calif.) plates. The tubes and plates were incubated in an anaerobic atmosphere at 37° C. for 48 h. […] MBC50 and 90 values represent where 50 and 90%, respectively, of the tested strain's MBC values are equal to or less than the indicated concentration.
# [3] = system: Streptococcus mutans; test: MIC, panel of human pathogens, standardized NCCLS protocols; type: cell-based; settings: Streptococcus mutans 25175
# [4] = system: CHO cells; test: CHO chromosomal aberration test; type: cell-based, Chinese Hamster; settings: with and without metabolic activation
# Experimental: XMP.629 was next evaluated for activity to induce chromosomal aberrations in cultured CHO cells with and without an exogenous metabolic activation system. […] The assay design for these chromosomal aberration studies was based on OECD Guideline 473, updated and adopted Jul. 21, 1997. XMP.629 was provided as a 20.0 mg/mL stock in 10 mM sodium acetate buffer (pH 6). This solution and its dilutions prepared in cell culture grade water were dosed at 10% vol/vol (100 pUL/mL). The vehicle control cultures were treated with 100 μL/mL of cell culture grade water. In the initial assay, the treatment period was for 3.0 hours with and without metabolic activation at various concentrations of XMP.629 (30, 60, 120, 240, 480, 686, 980, 1400 and 2000 μg/mL) and cultures were harvested 20.0 hours from the initiation of treatment. Those cultures that were treated with 30, 60 and 120 pg/mL were analyzed for chromosomal aberrations. No significant increase in cells with chromosomal aberrations, polyploidy or endoreduplication was observed. In a confirmatory assay that included lower doses, the treatment period was 20 hours without metabolic activation (3.75, 7.5,15, 30, 60, 90, 120, 160, 200 and 240 μg/mL) and 3 hours with metabolic activation (15, 30, 60, 90, 120, 160, 200, 240, 300 and 360 μg/mL). […]
# [5] = system: Propionibacterium isolates; settings: 15 isolates
# Experimental: as §1
# [6] = system: Propionibacterium acnes; settings: Propionibacterium acnes 6919
# [7] = [3H]-labeled XMP.629, 0.3 mg/kg intravenous, estimate
# [8] = RMA 5740, Formulation Buffer Solvent, Study 1
# [9] = RMA 5740, Formulation Buffer Solvent, Study 2
# [10] = RMA 5740, Water Solvent, Study 1
# [11] = RMA 5740, Water Solvent, Study 2
# [12] = RMA 6867, Formulation Buffer Solvent, Study 1
# [13] = RMA 6867, Formulation Buffer Solvent, Study 2
# [14] = RMA 6867, Water Solvent, Study 1
# [15] = RMA 6867, Water Solvent, Study 2
# [16] = RMA 7093, Formulation Buffer Solvent, Study 1
# [17] = RMA 7093, Formulation Buffer Solvent, Study 2
# [18] = RMA 7093, Water Solvent, Study 1
# [19] = RMA 7093, Water Solvent, Study 2
# [20] = RMA 11787, Formulation Buffer Solvent, Study 1
# [21] = RMA 11787, Formulation Buffer Solvent, Study 2
# [22] = RMA 11787, Water Solvent, Study 1
# [23] = RMA 11787, Water Solvent, Study 2
# [24] = Formulation Buffer Solvent, Study 1
# [25] = Formulation Buffer Solvent, Study 2
compound,measurement,setting,value
"CC(C)C[C@@H](NC(=O)[C@H](N)CCCCN)C(=O)N[C@H](Cc1ccccc1)C(=O)N[C@H](CCCNC(=N)N)C(=O)N[C@H](Cc1cccc2ccccc12)C(=O)N[C@H](CCC(N)=O)C(=O)N[C@H](C)C(=O)N[C@H](CCCCN)C(=O)N[C@H](Cc1cccc2ccccc12)C(N)=O [XMP.629, NH2-lys-leu-phe-arg-(3-(1-naphthyl)-ala)-gln-ala-lys-(3-(1-naphthyl)-ala)-CONH2] (H-[dK][dL][dF][dR][d1Nal][dQ][dA][dK][d1Nal]-NH2)",MBC50,"[1]; P. granulosum, 4 strains",0.25 µg/mL
same,MBC90,"[1]; P. granulosum, 4 strains",4 µg/mL
same,MBC Range,"[1]; P. granulosum, 4 strains, in µg/mL",0.25-4
same,MBC,[1]; [8],2 µg/mL
same,MIC,[1]; [8],1 µg/mL
same,MBC,[1]; [9],0.25 µg/mL
same,MIC,[1]; [9],0.25 µg/mL
same,MBC,[1]; [10],4 µg/mL
same,MIC,[1]; [10],2 µg/mL
same,MBC,[1]; [11],1 µg/mL
same,MIC,[1]; [11],1 µg/mL
same,MBC,[1]; [12],2 µg/mL
same,MIC,[1]; [12],0.5 µg/mL
same,MBC,[1]; [13],4 µg/mL
same,MIC,[1]; [13],4 µg/mL
same,MBC,[1]; [14],2 µg/mL
same,MIC,[1]; [14],1 µg/mL
same,MBC,[1]; [15],4 µg/mL
same,MIC,[1]; [15],4 µg/mL
same,MBC,[1]; [16],2 µg/mL
same,MIC,[1]; [16],1 µg/mL
same,MBC,[1]; [17],0.25 µg/mL
same,MIC,[1]; [17],0.25 µg/mL
same,MBC,[1]; [18],2 µg/mL
same,MIC,[1]; [18],2 µg/mL
same,MBC,[1]; [19],0.5 µg/mL
same,MIC,[1]; [19],1 µg/mL
same,MBC,[1]; [20],2 µg/mL
same,MIC,[1]; [20],2 µg/mL
same,MBC,[1]; [21],0.25 µg/mL
same,MIC,[1]; [21],0.25 µg/mL
same,MBC,[1]; [22],2 µg/mL
same,MIC,[1]; [22],2 µg/mL
same,MBC,[1]; [23],1 µg/mL
same,MIC,[1]; [23],1 µg/mL
same,"MIC90, XMP.629 data reported as MBC values",[2],1 µg/mL
same,"MIC90, XMP.629 data reported as MBC values",[2]; in FB (formulation buffer),0.5 µg/mL
same,Minimum Inhibitory Concentrations,[3],≦1 μg/mL
same,chromosomal aberrations in CHO cells,[4],negative
same,MBC GeoMean Values,[5]; [24],1.2 µg/mL
same,MIC GeoMean Values,[5]; [24],0.7 µg/mL
same,MBC GeoMean Values,[5]; [25],1.10 µg/mL
same,MIC GeoMean Values,[5]; [25],0.7 µg/mL
same,MBC GeoMean Values,"[5]; Water Solvent, Study 1",2.41 µg/mL
same,MIC GeoMean Values,"[5]; Water Solvent, Study 1",1.7 µg/mL
same,MBC GeoMean Values,"[5]; Water Solvent, Study 2",1.9 µg/mL
same,MIC GeoMean Values,"[5]; Water Solvent, Study 2",1.7 µg/mL
same,Minimum Inhibitory Concentrations,[6],1.00 µg/mL
same,CL (clearance),"[7]; male Sprague-Dawley rats, three compartment model",358.7 g plasma/hr/kg
same,C0 (extrapolated plasma concentration at time 0),[7]; rat,2.49 μg equivalents/g
same,Vc (volume of distribution of the central compartment),[7]; rat,0.121 L/kg
same,Vss (volume of distribution at steady state),[7]; rat,1.657 L/kg
same,t1/2 (average half-life),[7]; rat,13.8 min
same,t1/2α (α half-life),[7]; rat,1.92 min
same,t1/2β (β half-life),[7]; rat,46.2 min
same,t1/2γ (γ half-life),[7]; rat,498 min
